Test results as given in patent publication US8916550B2, “Compounds for modulating TRPV3 function” (Hydra Biosciences, Inc., priority 2005, dated 2014).
Like-named read-outs stand apart in the source and are kept apart here.

Legend:
TRPV1 (hTRPV1) = biological target: T1, TRPV1 (hTRPV1) (Homo sapiens, UniProt Q8NER1); test: Selectivity patch clamp, TRPV1 channel; format: cell-based; details: fold selective for TRPV3 over TRPV1; tested up to 30 μM, IC50 estimated
T1 construct: expressed in transfected cells
T1 sequence (Q8NER1 whole entry): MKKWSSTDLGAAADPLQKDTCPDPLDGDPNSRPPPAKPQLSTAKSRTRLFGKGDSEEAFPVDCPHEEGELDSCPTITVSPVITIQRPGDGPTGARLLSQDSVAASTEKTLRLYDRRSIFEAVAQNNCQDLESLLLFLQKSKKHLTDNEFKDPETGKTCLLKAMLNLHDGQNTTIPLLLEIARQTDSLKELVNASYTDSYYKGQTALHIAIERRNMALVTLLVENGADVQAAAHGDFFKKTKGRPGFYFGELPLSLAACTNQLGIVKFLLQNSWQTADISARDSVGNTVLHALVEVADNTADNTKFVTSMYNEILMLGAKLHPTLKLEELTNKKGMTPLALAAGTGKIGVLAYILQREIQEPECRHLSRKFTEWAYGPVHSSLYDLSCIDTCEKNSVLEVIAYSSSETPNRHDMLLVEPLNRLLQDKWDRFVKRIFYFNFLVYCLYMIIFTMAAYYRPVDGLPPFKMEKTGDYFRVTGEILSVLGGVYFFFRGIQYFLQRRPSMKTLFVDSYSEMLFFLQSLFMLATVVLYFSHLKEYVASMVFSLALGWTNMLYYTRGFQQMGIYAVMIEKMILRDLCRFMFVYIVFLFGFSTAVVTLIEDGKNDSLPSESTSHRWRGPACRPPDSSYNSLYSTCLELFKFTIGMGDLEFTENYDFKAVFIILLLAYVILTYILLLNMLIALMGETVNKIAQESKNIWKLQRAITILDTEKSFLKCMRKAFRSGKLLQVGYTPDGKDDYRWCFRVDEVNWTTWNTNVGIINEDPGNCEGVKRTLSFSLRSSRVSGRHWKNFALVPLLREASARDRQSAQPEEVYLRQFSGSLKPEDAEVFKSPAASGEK
From the text: (§1) Data is presented as fold selective.

NaV1.2 = biological target: T2, NaV1.2 (Homo sapiens, UniProt Q99250); test: Selectivity patch clamp, NaV1.2 channel; format: cell-based; details: fold selective for TRPV3 over NaV1.2; tested up to 30 μM, IC50 estimated
T2 construct: expressed in transfected cells
T2 sequence (Q99250 whole entry): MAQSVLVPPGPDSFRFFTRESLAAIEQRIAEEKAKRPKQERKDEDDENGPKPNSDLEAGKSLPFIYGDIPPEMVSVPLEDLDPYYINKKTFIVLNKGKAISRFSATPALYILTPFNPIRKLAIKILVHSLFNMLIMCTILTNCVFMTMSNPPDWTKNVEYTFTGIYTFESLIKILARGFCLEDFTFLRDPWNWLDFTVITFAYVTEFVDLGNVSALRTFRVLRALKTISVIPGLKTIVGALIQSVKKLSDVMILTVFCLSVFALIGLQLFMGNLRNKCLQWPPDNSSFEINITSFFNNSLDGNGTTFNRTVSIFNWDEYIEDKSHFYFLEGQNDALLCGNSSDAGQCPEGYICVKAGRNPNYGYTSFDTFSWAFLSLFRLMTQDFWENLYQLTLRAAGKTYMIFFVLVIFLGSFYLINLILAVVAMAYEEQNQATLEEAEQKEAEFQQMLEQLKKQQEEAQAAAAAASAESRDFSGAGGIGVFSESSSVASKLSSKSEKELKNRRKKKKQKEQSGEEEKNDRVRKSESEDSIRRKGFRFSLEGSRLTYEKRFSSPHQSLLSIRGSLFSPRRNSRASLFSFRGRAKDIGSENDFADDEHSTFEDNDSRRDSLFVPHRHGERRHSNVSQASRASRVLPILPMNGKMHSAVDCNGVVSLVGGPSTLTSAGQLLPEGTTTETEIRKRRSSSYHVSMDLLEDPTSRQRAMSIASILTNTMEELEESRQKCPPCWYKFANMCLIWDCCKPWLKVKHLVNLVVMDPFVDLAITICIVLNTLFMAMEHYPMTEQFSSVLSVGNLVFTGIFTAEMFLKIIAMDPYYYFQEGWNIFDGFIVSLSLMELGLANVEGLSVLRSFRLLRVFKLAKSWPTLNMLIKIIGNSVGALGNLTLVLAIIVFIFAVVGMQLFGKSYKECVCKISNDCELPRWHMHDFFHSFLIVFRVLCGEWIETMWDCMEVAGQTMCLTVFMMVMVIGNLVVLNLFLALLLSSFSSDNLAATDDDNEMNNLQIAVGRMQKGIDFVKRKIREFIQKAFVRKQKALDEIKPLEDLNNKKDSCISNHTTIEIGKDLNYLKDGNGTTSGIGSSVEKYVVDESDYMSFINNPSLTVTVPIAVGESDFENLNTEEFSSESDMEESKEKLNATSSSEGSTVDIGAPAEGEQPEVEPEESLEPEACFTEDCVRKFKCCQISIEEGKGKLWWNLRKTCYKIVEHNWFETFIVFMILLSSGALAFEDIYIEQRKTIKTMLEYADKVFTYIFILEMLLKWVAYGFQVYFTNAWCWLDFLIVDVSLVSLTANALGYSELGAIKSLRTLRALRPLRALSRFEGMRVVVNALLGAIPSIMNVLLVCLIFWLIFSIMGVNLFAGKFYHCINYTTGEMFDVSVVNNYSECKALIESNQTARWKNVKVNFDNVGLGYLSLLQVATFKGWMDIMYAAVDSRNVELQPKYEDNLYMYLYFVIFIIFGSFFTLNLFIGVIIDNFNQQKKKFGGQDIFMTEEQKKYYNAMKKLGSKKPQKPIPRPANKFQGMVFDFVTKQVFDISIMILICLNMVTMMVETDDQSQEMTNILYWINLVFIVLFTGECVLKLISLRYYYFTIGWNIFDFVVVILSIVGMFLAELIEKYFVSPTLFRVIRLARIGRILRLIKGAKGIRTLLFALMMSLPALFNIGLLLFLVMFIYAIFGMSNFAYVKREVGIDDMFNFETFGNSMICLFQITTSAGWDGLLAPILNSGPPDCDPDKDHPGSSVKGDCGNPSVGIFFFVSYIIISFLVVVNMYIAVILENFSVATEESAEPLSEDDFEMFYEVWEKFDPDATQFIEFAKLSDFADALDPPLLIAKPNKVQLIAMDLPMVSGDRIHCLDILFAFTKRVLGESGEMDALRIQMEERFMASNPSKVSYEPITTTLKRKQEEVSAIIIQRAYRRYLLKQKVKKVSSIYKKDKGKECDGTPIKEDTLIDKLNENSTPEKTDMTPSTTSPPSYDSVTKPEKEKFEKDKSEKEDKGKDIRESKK
From the text: as §1

rat TRPV6 (rTRPV6) [1] = biological target: T3, rat TRPV6 (rTRPV6) (Rattus norvegicus, UniProt Q9R186); test: Selectivity patch clamp, TRPV6 channel; format: cell-based; details: fold selective for TRPV3 over TRPV6; tested up to 30 μM, IC50 estimated
T3 construct: expressed in transfected cells
T3 sequence (Q9R186 1-767): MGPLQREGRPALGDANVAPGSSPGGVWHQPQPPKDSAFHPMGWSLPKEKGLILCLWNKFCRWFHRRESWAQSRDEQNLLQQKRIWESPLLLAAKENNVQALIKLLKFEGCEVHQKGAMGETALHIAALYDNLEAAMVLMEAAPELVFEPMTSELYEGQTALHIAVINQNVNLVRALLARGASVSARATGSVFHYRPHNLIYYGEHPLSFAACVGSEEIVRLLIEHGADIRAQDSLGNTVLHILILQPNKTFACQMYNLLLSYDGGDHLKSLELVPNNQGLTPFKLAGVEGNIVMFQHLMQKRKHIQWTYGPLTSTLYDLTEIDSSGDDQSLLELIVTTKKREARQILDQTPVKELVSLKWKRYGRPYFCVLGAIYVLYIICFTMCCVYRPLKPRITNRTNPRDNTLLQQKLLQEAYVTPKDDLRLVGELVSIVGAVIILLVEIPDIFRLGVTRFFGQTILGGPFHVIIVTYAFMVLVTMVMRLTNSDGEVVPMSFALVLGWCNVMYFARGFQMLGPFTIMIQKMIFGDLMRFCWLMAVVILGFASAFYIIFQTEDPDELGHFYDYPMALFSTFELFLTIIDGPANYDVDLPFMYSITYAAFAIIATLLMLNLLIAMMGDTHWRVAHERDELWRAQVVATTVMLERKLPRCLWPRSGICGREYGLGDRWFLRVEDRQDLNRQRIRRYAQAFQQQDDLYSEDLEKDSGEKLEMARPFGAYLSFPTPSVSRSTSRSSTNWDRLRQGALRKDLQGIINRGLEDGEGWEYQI
From the text: as §1

[2] = Plasma levels by HPLC/MS/MS after administration; format: in vivo; details: rat
Protocol: The plasma levels of TRPV3 inhibitor 15 were determined via HPLC/MS/MS following administration to male Sprague-Dawley rats. Rats were administered a single intravenous bolus dose of 1.2 mg/kg, an intraperitoneal dose of a suspension of 30 or 60 mg/kg, an oral dose of a solution of 8.6 mg/kg, or an oral dose of a suspension of 6.9 mg/kg.
For intravenous administration, TRPV3 inhibitor 15 solutions were formulated in Solutol at a target concentration of 0.25 mg/mL. The solution was administered as a rapid bolus (approximately 2-3 seconds) via the tail vein of conscious rats or via jugular vein catheter in anesthetized rats. The solution was administered at a dose volume of 4 mL/kg.
For intraperitoneal administration, TRPV3 inhibitor 15 was formulated as a uniform suspension in CMC (carboxymethylcellulose) at a target concentration of 5 mg/mL. The suspension was administered at a dose volume of 10 mL/kg.
For oral administration, TRPV3 inhibitor 15 was formulated as either a uniform suspension in CMC or as a solution in Solutol. The target concentration was 1 mg/mL. Oral administration was by gavage at a dose volume of 10 mL/kg to conscious, fasted, male Sprague-Dawley rats.

[3] = system: rats, CFA injected hindpaw; test: Complete Freund's Adjuvant (CFA) model of inflammatory pain, latency to withdrawal; format: in vivo, rat; details: for Effect relative to diclofenac / TRPV1 inhibitor: highest dose tested, 200 mg/kg; for Thermal hyperalgesia (latency to withdrawal): intraperitoneal, tested 45 minutes later
Protocol: As outlined above, the Complete Freund's Adjuvant (CFA) model is a model of inflammatory pain. As such, it may be used to evaluate effectiveness in relieving pain caused by inflammation, for example, pain due to arthritis and other inflammatory conditions. FIG. 9 provides a schematic representation of the protocol used to evaluate a TRPV3 inhibitor in the CFA model.
Naive rats were pretested for sensitivity to a heat stimulus in the Hargreaves apparatus. The next day, 100 μL of complete Freund's adjuvant (CFA) was injected into the plantar surface of the right hindpaw. Two days later, in the morning, the rats were again pretested. In the afternoon, rats were injected with either vehicle control (methylcellulose or PEG-400) or with drug (TRPV3 inhibitor 64, TRPV3 inhibitor 15, TRPV1 inhibitor A-425619, or the non-steroidal anti-inflammatory diclofenac). Drugs or vehicle were injected intraperitoneally, and 45 minutes later rats were tested for hyperalgesia by applying the heat source to the CFA injected and uninjected hindpaw and measuring latency to withdrawal.

[4] = system: Male Holtzman rats, substance-P induced thermal hyperalgesia; test: Intrathecal substance-P induced thermal hyperalgesia; format: in vivo, rat; details: 200 mg/kg IP, 30 minutes prior to substance-P; p<0.05 between groups
Protocol: The efficacy of a TRPV3 antagonist in diminishing hyperalgesia was assessed in a model of intrathecal administered substance-P induced thermal hyperalgesia. Male Holtzman rats were used in this study and thermal escape was measured using a Hargreaves apparatus. Thermal escape was measured pre-treatment (baseline), and at intervals following intrathecal administration of substance-P (tested at 15, 30, 45, and 60 minutes post substance-P administration). Control animals were administered vehicle intraperitoneally after baseline assessment and 30 minutes prior to substance P administration. Experimental animals receiving a TRPV3 inhibitor (compound 64) were administered compound intraperitoneally after baseline assessment and 30 minutes prior to substance P administration.
Substance-P induced rats were surgically prepared with a lumbar intrathecal catheter using clean surgical technique while under inhalation anesthesia (isoflurane). The catheter was externalized at the back of the head to minimize handling of the animal during drug delivery. […]
Briefly, baseline mean paw latencies were determined prior to substance-P administration. […] After injection of substance P intrathecally via the previously placed catheter (counted as time=0), measurements of escape latency were taken at 15, 30, 45, and 60 minutes post-substance-P administration. […]

[5] = system: Male Holtzmann rats, intraplantar formalin; test: Formalin model following intrathecal delivery; format: in vivo, rat; details: 10 mg/kg intrathecally
From the text: As outlined above, the formalin model involves injection of a formalin solution intradermally or intraperitoneally. Injection of formalin solution invokes a biphasic response, and thus provides a model for both nociceptive and inflammatory pain. The formalin model was used to evaluate the effectiveness of an exemplary TRPV3 inhibitor in the treatment of pain following intrathecal (IT) delivery. Efficacy following intrathecal delivery provides evidence that the compound can act centrally.
Briefly, the following protocol was followed. Male Holtzmann rats received intraplantar injections of 50 μL of 2% formalin. Paw flinching was detected by an automated sensor detecting movement of a small metal band placed on the injected hind paw. Drug or vehicle was administered intrathecally approximately 15 minutes prior to the injection of formalin. The animal's response to injection of the irritant was measured by counting flinches per minutes during the Early Phase and during the Late Phase.
Flinches per minute, a measure of the pain and discomfort experienced by the animal, was measured following formalin injection in animals receiving either 10 mg/kg TRPV3 inhibitor (Compound 64) or a vehicle control (0.5% DCC). The TRPV3 inhibitor was formulated in 20% DMSO/20% cremaphore/10% cyclodextrin (DCC) and administered intrathecally. […]

[6] = system: Male Holtzman rats, thermal injury; test: Thermal injury model, thermal escape latency (Hargreaves); format: in vivo, rat
Protocol: The thermal injury model was used to evaluate the effectiveness of an exemplary TRPV3 inhibitor in the treatment of nociceptive pain. FIG. 1 provides a schematic representation of the protocol used to evaluate a TRPV3 inhibitor in the thermal injury model.
Briefly, the following protocol was followed. Male Holtzman rats (approximately 300 grams) were tested on thermal escape using a Hargreaves type apparatus. Under light anesthesia, a thermal injury (52° C. for 45 seconds) was applied to one heel. The animals were tested for thermal escape latency of the injured and uninjured paw before and at 30, 60, 80 and 120 minutes after injury. Drug (a TRPV3 inhibitor or morphine) or vehicle (0.5% methylcellulose) was administered after the baseline measurement and approximately 15-20 minutes prior to the thermal injury. In addition to the escape latency measurement, behavioral observations were made throughout the experiment.

[7] = system: Male Holtzman rats, thermal injury; details: Table B comparators; based on our data as well as data available in the literature; cited from earlier work
[8] = system: rats, CFA injected hindpaw; details: Table B comparators; based on our data as well as data available in the literature; cited from earlier work
human ERG (hERG) = human ERG (hERG) (Homo sapiens, UniProt Q12809); test: Selectivity patch clamp, hERG channel; details: fold selective for TRPV3 over hERG; tested up to 30 μM, IC50 estimated
Chain of human ERG (hERG) (Q12809 whole entry): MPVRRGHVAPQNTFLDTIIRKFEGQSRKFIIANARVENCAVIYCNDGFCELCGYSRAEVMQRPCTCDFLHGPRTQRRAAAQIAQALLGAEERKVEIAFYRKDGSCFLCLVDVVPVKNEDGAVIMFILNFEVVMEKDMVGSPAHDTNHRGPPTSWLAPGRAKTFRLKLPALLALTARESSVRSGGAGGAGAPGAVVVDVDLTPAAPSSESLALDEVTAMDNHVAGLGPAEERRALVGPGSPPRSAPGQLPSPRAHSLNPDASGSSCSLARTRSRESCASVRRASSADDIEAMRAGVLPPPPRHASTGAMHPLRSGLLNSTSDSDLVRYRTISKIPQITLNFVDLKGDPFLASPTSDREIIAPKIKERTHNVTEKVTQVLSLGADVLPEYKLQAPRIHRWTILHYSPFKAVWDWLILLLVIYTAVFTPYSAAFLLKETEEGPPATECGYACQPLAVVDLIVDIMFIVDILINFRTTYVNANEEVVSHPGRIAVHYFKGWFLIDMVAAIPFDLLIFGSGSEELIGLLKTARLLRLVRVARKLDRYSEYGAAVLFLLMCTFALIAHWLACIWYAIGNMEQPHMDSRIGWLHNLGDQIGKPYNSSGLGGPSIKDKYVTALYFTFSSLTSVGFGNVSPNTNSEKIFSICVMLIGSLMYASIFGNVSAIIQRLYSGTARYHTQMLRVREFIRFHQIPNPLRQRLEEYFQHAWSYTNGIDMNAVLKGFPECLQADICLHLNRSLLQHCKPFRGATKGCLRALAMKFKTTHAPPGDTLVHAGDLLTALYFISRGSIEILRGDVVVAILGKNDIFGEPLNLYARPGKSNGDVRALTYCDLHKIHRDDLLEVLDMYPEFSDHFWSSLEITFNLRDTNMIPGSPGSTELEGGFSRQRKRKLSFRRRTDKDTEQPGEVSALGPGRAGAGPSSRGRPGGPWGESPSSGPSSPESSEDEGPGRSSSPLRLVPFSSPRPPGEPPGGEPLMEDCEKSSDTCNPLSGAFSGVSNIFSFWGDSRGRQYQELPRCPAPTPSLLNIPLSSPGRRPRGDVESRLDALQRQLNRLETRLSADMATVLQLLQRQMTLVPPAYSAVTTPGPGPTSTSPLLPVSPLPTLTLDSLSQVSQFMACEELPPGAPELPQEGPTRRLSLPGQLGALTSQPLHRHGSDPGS
Protocol: Compounds of interest were tested against these channels at concentrations up to 30 μM, and the resulting data were used to estimate IC50. Data is presented as fold selective.

rat TRPV6 (rTRPV6) [9] = biological target: T3, rat TRPV6 (rTRPV6); details: (Clapham et al.); cited from earlier work

Cc1cccc2c1N(C(=O)CSc1nc3cc(Cl)ccc3s1)CCC2 [Compound 15, 2-(5-Chlorobenzothiazol-2-ylsulfanyl)-1-(8-methyl-3,4-dihydro-2H-quinolin-1-yl)-ethanone]
TRPV3:TRPV1 fold selectivity (TRPV1 (hTRPV1)): >1000 fold
TRPV3:NaV1.2 fold selectivity (NaV1.2): >1000 fold
TRPV3:TRPV6 fold selectivity (rat TRPV6 (rTRPV6) [1]): >1000 fold
bioavailability ([2]; male, Sprague-Dawley, fasted rats, oral, solution or suspension, read-out: Estimated bioavailability): ~5%
half-life ([2]; male Sprague-Dawley rats, read-out: Estimated half-life (converted)): 1.6 h
clearance ([2]; male Sprague-Dawley rats, read-out: Estimated plasma clearance): 41 mL/min/kg
Vd ([2]; male Sprague-Dawley rats, read-out: Estimated volume of distribution): 5.51 L/kg
Effect relative to diclofenac / TRPV1 inhibitor [3]: more potent than the effects of the non-steroidal anti-inflammatory
Thermal hyperalgesia (latency to withdrawal) [3]: reduced thermal hyperalgesia

Cc1cccc2c1N(C(=O)CSc1nc3ccccc3s1)CCC2 [Compound 46, 2-(Benzothiazol-2-ylsulfanyl)-1-(8-methyl-3,4-dihydro-2H-quinolin-1-yl)-ethanone]
TRPV3:TRPV1 fold selectivity (TRPV1 (hTRPV1)): >200 fold

O=C(CSc1nc2ccccc2s1)N1CCCc2ccccc21 [Compound 64, 2-(Benzo[d]thiazol-2-ylthio)-1-(3,4-dihydroquinolin-1(2H)-yl)ethanone]
TRPV3:TRPV1 fold selectivity (TRPV1 (hTRPV1)): >40 fold
Thermal hyperalgesia (mean paw latency) [4]: reversed the hyperalgesia
TRPV3:NaV1.2 fold selectivity (NaV1.2): >40 fold
Flinches per minute ([5]; about 15 minutes prior to formalin, vs vehicle): substantially reduced the flinches per minute
Flinches per minute, Late Phase ([5]; Late Phase): statistically significant reduction
TRPV3:TRPV6 fold selectivity (rat TRPV6 (rTRPV6) [1]): >40 fold
Escape latency in the injured paw ([6]; 200 mg/kg): comparable to that observed prior to injury
Escape latency in the uninjured paw ([6]; even at the highest concentrations administered (FIG. 3)): no effect on the uninjured paw
Escape latency in the injured paw ([6]; increasing concentrations of inhibitor vs methylcellulose control (FIG. 2)): significantly diminished pain
Effect relative to diclofenac / TRPV1 inhibitor [3]: more potent than the effects of either the non-steroidal anti-inflammatory or the TRPV1 inhibitor
Pain sensitivity of inflamed paw ([3]; individual rats, FIG. 11): returns pain sensitivity to baseline levels
Thermal hyperalgesia (latency to withdrawal) [3]: reduced thermal hyperalgesia

NCC1(CC(=O)O)CCCCC1 [Gabapentin]
Acute thermal injury [7]: Effective
CFA Model [8]: Ineffective

N.N.N.N.N.N.N.N.N.N.N.N.N.N.[Cl-].[Cl-].[Cl-].[Cl-].[Cl-].[Cl-].[O-2].[O-2].[Ru+3].[Ru+3].[Ru+4] [Ruthenium Red]
TRPV3:TRPV1 fold selectivity (TRPV1 (hTRPV1)): 3 fold selective
TRPV3:hERG fold selectivity (human ERG (hERG)): >40 fold
TRPV3:TRPV6 fold selectivity (rat TRPV6 (rTRPV6) [9]): 10 fold
